Test results as given in patent US7183075B2, “Purified and isolated potassium-chloride cotransporter nucleic acids and polypeptides and therapeutic and screening methods using same” (Vanderbilt University, priority 2000, dated 2007).
Read-outs that look alike come from different tables or passages of the source.

Target: T1, hKCC3a (Homo sapiens, UniProt Q9UHW9, L346X/L35X/L789X)
T1 construct: A full-length hKCC3a construct has also been generated for functional expression; expressed in transfected cells; host or cells: Xenopus laevis oocytes injected with cRNA
T1 sequence (Q9UHW9 1-1150 L35X/L346X/L789X): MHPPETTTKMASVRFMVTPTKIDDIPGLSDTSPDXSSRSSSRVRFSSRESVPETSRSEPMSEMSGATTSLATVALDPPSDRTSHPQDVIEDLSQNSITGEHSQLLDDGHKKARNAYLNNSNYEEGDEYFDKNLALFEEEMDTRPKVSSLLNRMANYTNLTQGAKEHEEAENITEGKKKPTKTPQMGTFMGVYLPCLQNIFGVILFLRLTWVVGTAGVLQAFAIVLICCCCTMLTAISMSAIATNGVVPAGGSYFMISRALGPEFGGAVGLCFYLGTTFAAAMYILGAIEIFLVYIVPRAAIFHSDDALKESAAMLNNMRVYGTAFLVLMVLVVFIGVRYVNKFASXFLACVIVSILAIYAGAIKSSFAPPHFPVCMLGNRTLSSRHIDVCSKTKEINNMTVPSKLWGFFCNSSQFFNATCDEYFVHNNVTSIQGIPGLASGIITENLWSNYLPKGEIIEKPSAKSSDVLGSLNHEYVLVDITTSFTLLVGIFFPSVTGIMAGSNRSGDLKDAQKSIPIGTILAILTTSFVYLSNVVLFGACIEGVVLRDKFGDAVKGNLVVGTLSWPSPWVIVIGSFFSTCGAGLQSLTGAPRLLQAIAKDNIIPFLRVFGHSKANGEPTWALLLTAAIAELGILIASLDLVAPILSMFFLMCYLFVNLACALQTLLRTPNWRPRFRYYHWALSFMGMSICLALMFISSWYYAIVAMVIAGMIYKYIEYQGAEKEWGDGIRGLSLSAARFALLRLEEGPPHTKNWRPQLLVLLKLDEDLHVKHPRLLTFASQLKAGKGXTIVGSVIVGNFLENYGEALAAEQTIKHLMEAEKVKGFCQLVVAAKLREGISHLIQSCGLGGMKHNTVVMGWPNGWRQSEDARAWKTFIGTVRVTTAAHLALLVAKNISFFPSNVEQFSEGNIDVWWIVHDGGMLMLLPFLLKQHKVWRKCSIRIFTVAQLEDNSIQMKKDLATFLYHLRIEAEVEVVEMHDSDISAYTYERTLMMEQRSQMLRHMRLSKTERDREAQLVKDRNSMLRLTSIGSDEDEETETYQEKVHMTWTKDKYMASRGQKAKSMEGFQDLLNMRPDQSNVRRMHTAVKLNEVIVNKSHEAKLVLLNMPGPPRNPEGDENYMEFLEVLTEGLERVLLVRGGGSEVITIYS
Test: 86Rb+ uptake (K+-Cl- cotransport) in Xenopus oocytes injected with hKCC3a cRNA
Format: cell-based
Settings: for Km: KCC3

## Cl [Chloride]
read-out: Chloride Km
  Km: 14.2 mM

## [K+] [Potassium]
read-out: Potassium Km
  Km: 51.9 mM

## HgCl2 [Hg—Cl2]
50 μM HgCl2, hypotonic
  response of KCC3a to mercury: resistant
